What was measured:
Cls = molecular target: T1, Cls (Homo sapiens, UniProt P09871); experiment: Anti-Cl esterase activity, Cls (ATEE hydrolysis); assay type: biochemical; conditions: hydrolysis of ATEE; read-out: Anti-Cl activity, Cls (50% inhibition)
T1 sequence (P09871 438-688 limits assumed): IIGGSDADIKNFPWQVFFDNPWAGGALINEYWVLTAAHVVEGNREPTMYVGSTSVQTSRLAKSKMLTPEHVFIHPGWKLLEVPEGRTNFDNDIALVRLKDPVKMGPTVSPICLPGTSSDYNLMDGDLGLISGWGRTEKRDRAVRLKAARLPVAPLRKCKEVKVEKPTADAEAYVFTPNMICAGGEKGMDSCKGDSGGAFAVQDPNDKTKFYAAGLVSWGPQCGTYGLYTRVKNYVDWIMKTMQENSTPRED
T1 sequence (P09871 16-437 limits assumed): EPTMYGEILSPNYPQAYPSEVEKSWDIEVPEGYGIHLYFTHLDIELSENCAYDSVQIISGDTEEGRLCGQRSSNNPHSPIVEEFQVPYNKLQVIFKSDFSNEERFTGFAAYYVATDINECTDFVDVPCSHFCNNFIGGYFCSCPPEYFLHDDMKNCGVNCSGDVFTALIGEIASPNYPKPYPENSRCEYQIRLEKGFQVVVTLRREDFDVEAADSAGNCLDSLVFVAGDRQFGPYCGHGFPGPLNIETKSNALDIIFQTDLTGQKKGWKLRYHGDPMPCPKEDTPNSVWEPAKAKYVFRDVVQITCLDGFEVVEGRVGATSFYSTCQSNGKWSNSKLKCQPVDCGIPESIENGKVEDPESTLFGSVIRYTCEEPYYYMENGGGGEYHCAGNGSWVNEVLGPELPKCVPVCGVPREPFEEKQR
Description: The anti-Cl esterase (Clr, Cls) activity was determined according to the method of Okamura et al. [K. Okamura, M. Muramatsu and B. Fujii, Biochem. Biophys. […] The figures in Table 2 have the following meanings:
Cls: Molar concentration of the test compound which inhibits 50% of the ability of Cls to hydrolyse ATEE (acetyltyrosin ethyl ester).

complement = experiment: Inhibition of complement mediated hemolysis; assay type: cell-based
Description: The complement mediated hemolysis is widely used as a means to determine the titration of complement. The principle of this method is based on the fact that hemolysis if caused by the activation of complement, when the latter is added to a complex (immune complex) of erythrocytes and the antibody thereof. The degree of hemolysis varies in proportion to the amount of complement added. Therefore, when a known amount of complement admixed with a Cl esterase inhibitor is used, the hemolysis must be suppressed in proportion to the inhibitory activity.
The anti-Cl esterase (Clr, Cls) activity was determined according to the method of Okamura et al. [K. Okamura, M. Muramatsu and B. Fujii, Biochem. Biophys. […] The figures in Table 2 have the following meanings: […]

Clr = molecular target: T2, Clr (Homo sapiens, UniProt P00736); experiment: Anti-Cl esterase activity, Clr (AAME hydrolysis); assay type: biochemical; conditions: hydrolysis of AAME; read-out: Anti-Cl activity, Clr (ID50)
T2 sequence (P00736 464-705 limits assumed): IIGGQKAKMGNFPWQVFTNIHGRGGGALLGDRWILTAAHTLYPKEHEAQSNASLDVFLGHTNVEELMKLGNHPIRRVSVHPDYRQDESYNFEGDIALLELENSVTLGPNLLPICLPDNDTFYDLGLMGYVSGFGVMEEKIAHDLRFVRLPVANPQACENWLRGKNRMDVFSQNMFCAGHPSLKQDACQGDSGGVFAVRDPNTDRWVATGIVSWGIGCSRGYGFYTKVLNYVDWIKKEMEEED
T2 sequence (P00736 18-463 limits assumed): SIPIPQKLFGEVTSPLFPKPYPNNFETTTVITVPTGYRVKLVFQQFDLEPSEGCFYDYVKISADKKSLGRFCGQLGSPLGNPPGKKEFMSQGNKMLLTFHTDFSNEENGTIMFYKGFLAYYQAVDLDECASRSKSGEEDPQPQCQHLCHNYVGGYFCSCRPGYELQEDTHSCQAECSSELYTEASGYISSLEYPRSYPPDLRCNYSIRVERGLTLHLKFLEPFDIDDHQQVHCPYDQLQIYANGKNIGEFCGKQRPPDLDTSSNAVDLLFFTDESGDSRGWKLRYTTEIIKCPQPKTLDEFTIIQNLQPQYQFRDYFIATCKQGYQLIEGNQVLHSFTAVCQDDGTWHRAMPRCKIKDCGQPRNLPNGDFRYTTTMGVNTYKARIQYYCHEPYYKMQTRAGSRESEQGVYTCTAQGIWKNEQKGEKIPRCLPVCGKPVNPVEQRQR
Description: The anti-Cl esterase ([…]) activity was determined according to the method of Okamura et al. [K. Okamura, M. Muramatsu and B. Fujii, Biochem. Biophys.

| SMILES | IC50 (Cls) [µM] | Inhibition of complement mediated hemolysis (%) (complement; compound at 1 × 10^-4) | Inhibition of complement mediated hemolysis (%) (complement; compound at 1 × 10^-5) | Inhibition of complement mediated hemolysis (%) (complement; compound at 1 × 10^-6) | Inhibition of complement mediated hemolysis (%) (complement; compound at 1 × 10^-7) | IC50 (Clr) [µM] |
| --- | --- | --- | --- | --- | --- | --- |
| COC(=O)c1cc(C(=N)N)ccc1OC(=O)c1ccc(F)cc1 [Compound 84] | 0.4 | 98.6 | 67.7 | 2.0 | 0 | > 10 |
| COc1cc(C(=N)N)ccc1OC(=O)CC(C)C [Compound 3, 4-amidino-2-methoxyphenyl isovalerate] | – | 44.4 | 5.0 | 18.0 | 0 | – |
| CC(=O)Oc1ccc(CCC(=O)Oc2ccc(C(=N)N)cc2C(=O)c2ccccc2)cc1 [Compound 55, 4-amidino-2-benzoylphenyl 3-(4-acetyloxy)phenylpropionate] | – | 100 | 96.9 | 60.8 | 3.5 | – |
| N=C(N)NCCCCCC(=O)Oc1ccc(C(=N)N)cc1C(=O)c1ccccc1 [Compound 15] | – | 98.8 | 81.7 | 12.7 | 0 | – |
| COc1cc(C(=N)N)ccc1OC(=O)c1ccc(NC(=N)N)c(C)c1 [Compound 75] | 3 | 45.2 | 3.2 | 0 | 0 | 8 |
| CC(C(=O)Oc1ccc(C(=N)N)cc1C(=O)c1ccccc1)c1ccc(Cl)cc1 (stereo not drawn) [Compound 86] | – | 100 | 97.1 | 53.6 | 11.0 | – |
| CC(C)Cc1ccc(C(C)C(=O)Oc2ccc(C(=N)N)cc2C(=O)c2ccccc2)cc1 (stereo not drawn) [Compound 40] | – | 87.5 | 68.1 | 7.8 | 2.0 | – |
| N=C(N)c1ccc(OC(=O)c2ccc(CN)cc2)c(C(=O)c2ccccc2)c1 [Compound 64] | – | 100 | 100 | 97.1 | 75.7 | – |
| COc1cc(C(=N)N)ccc1OC(=O)CCc1ccccc1 [Compound 32, 4-amidino-2-methoxyphenyl 3-phenylpropionate] | – | 63.9 | 97.5 | 7.1 | 0 | – |
| COc1ccccc1C(=O)Oc1ccc(C(=N)N)cc1C(=O)c1ccccc1 [Compound 41] | – | 66.7 | 9.3 | 0 | 0 | – |
| COc1cc(C(=N)N)ccc1OC(=O)CCCc1ccc(N)cc1 [Compound 65, 4-amidino-2-methoxyphenyl 4-(4-aminophenyl)butyrate] | – | 81.7 | 9.8 | 0 | 0 | – |
| CNC(=S)Nc1ccc(C(=O)Oc2ccc(C(=N)N)cc2C(=O)c2ccccc2)cc1 [Compound 79] | – | 95.1 | 96.8 | 81.7 | 48.1 | > 10 |
| CN(C(=N)N)c1ccc(C(=O)Oc2ccc(C(=N)N)cc2C(=O)c2ccccc2)cc1 [Compound 78] | – | 97.4 | 58.8 | 7.0 | 0 | > 10 |
| CC(=O)N[C@@H](CC(C)C)C(=O)N[C@@H](CC(C)C)C(=O)N[C@H](C=O)CCCNC(=N)N [Leupeptin, reference compound] | – | 97 | 52 | 0 | 0 | – |
| Cc1cccc(C(=O)Oc2ccc(C(=N)N)cc2[N+](=O)[O-])c1 [Compound 36] | – | 100 | 100 | 100 | 90.4 | – |
| CCCCCCC(=O)Oc1ccc(C(=N)N)cc1C(=O)c1ccccc1 [Compound 4] | – | 95.0 | 67.2 | 8.7 | 0 | – |
| N=C(N)Nc1ccc(C(=O)Nc2cc(C(=N)N)ccc2OC(=O)c2ccc(NC(=N)N)cc2)cc1 [Compound 73, 4-amidino-2-(4-guanidinobenzoylamino)phenyl 4-guanidinobenzoate] | – | 100 | 100 | 89.9 | 46.1 | – |
| CC(=O)c1ccc(C(=O)Oc2ccc(C(=N)N)cc2C(=O)c2ccccc2)cc1 [Compound 53] | – | 87.5 | 25.2 | – | 3.5 | – |
| COc1cccc(CC(=O)Oc2ccc(C(=N)N)cc2OC)c1 [Compound 43] | – | 95.0 | 50.4 | 3.7 | 0 | – |
| COc1cc(C(=N)N)ccc1OC(=O)C1CCCCC1 [Compound 9] | – | – | 16.2 | 2.5 | 0 | – |
| N=C(N)c1ccc(OC(=O)c2ccc(S(N)(=O)=O)cc2)c(C(=O)c2ccccc2)c1 [Compound 67] | – | 99.2 | 99.2 | 96.9 | 57.5 | – |
| N=C(N)c1ccc(OC(=O)c2ccc(CNC(=O)OCc3ccccc3)cc2)c(C(=O)c2ccccc2)c1 [Compound 63] | – | 100 | 100 | 98.0 | 94.5 | – |
| N=C(N)c1ccc(OC(=O)c2ccc(S(N)(=O)=O)cc2)c([N+](=O)[O-])c1 [Compound 68] | – | 100 | 92.9 | 50.6 | 5.8 | – |

From US4570006A, “Amidine compound, process for producing same and anti-complement agent comprising same” (Torii & Co. Ltd., priority 1981, dated 1986)
